From patent publication US20040087798A1, “Novel amide compounds” (priority 2000, published 2004) come the findings set out here.

For the compound `N=C(Nc1cccc(NC(=O)/C=C/c2ccccc2C(F)(F)F)c1F)c1ccccc1` [Example 61, (2E)-N-[3-(iminobenzylamino)-2-fluorophenyl]-3-[2-(trifluoromethyl)phenyl]-2-propenamide], the melting point (in general, the temperature of the solid-liquid transition) was 185 to 187 °C.
`Cc1cccc(/C=C/C(=O)Nc2cccc(NC(=N)c3ccccc3)c2)c1` [Example 39, (2E)-N-[3-(iminobenzylamino)phenyl]-3-(3-methylphenyl)-2-propenamide] returned a melting point of 179 to 180 °C.
For `N=C(Nc1cc(Cl)c(Cl)c(NC(=O)/C=C/c2ccccc2C(F)(F)F)c1)c1ccccc1` [Example 154, (2E)-N-[2,3-dichloro-5-(iminobenzylamino)phenyl]-3-(2-trifluoromethylphenyl)-2-propenamide], the melting point was in the range of 213 to 214 °C.
Regarding `COc1ccc(Cl)cc1C(=N)Nc1cc(Cl)cc(NC(=O)/C=C/c2ccccc2Cl)c1` [Example 24, (2E)-N-[3-chloro-5-[[(5-chloro-2-methoxyphenyl)(imino)methyl]amino]phenyl]-3-(2-chlorophenyl)-2-propenamide], the melting point lay within 226 to 228 °C.
Compound `N=C(Nc1cc(Cl)cc(NC(=O)/C=C/c2ccccc2Cl)c1)c1cccs1` [Example 33, (2E)-N-[3-chloro-5-[[imino(2-thienyl)methyl]amino]phenyl]-3-(2-chlorophenyl)-2-propenamide] came in with a melting point of 123 to 124 °C.
`N=C(Nc1cc(Cl)cc(NC(=O)/C=C/c2ccccc2Br)c1)c1ccccc1` [Example 142, (2E)-N-[3-chloro-5-(iminobenzylamino)phenyl]-3-(2-bromophenyl)-2-propenamide] registered a melting point of 99 to 101 °C.
Turning to `N=C(Nc1cccc(NC(=O)C=Cc2ccccc2)c1)c1ccccc1` [Example 2, N-[3-(iminobenzylamino)phenyl]cinnamamide], the melting point is 115 to 117 °C.
The same measure for `COc1ccc(NC(=O)/C=C/c2ccccc2C(F)(F)F)cc1NC(=N)c1ccccc1` [Example 144, (2E)-N-[3-(iminobenzylamino)-4-methoxyphenyl]-3-(2-trifluoromethylphenyl)-2-propenamide]: 213 to 214 °C; for `CS(=O)(=O)Nc1cc(NC(=N)c2ccccc2)cc(NC(=O)/C=C/c2ccccc2C(F)(F)F)c1` [Example 146, (2E)-N-[3 (iminobenzylamino)-5-(methylsulfonylamino)phenyl]-3-(2-trifluoromethylphenyl)-2-propenamide]: 150 to 155 °C.
`N=C(Nc1cc(NC(=O)/C=C/c2ccccc2Cl)cc(C(F)(F)F)c1)c1cccs1` [Example 32, (2E)-N-[3-trifluoromethyl-5-[[imino(2-thienyl)methyl]amino]phenyl]-3-(2-chlorophenyl)-2-propenamide] had a melting point of 206 to 208 °C.
In the case of `N#Cc1ccccc1/C=C/C(=O)Nc1cc(Cl)cc(NC(=N)c2ccccc2)c1` [Example 67, (2E)-N-[3-chloro-5-(iminobenzylamino)phenyl]-3-(2-cyanophenyl)-2-propenamide] it was 220 to 221 °C; in that of `O=C(C=Cc1ccccc1Cl)Nc1cc(Cl)cc(Nc2noc3ccccc23)c1` [Example 186, N-[3-(1,2-benzisoxazol-3-ylamino)-5-chlorophenyl]-2-chlorocinnamamide], 133 to 135 °C.
`N=C(Nc1cc(Cl)cc(NC(=O)/C=C/c2c[nH]c3ccccc23)c1)c1ccccc1` [Example 205, (2E)-N-[3-chloro-5-[[imino(phenyl)methyl]amino]phenyl]-3-(1H-indole-3-yl)-2-propenamide] returned a melting point of 184 to 187 °C.
The compound `N=C(Nc1cccc(NC(=O)/C=C/c2cccc(Cl)c2)c1)c1ccccc1` [Example 53, (2E)-N-[3-(iminobenzylamino)phenyl]-3-(3-chlorophenyl)-2-propenamide] displayed a melting point of 260 to 262 °C.
As for `N=C(Nc1cc(NC(=O)/C=C/c2ccccc2C(F)(F)F)ccc1Cl)c1ccccc1` [Example 145, (2E)-N-[4-chloro-3-(iminobenzylamino)phenyl]-3-(2-trifluoromethylphenyl)-2-propenamide], the melting point was 188 to 189 °C.
For `N=C(Nc1cccc(NC(=O)/C=C/c2ccccc2C(F)(F)F)c1)c1ccccc1` [Example 46, (2E)-N-[3-(iminobenzylamino)phenyl]-3-[2-(trifluoromethyl)phenyl]-2-propenamide], the melting point was 82 to 84 °C.
For the compound `COc1ccccc1/C=C/C(=O)Nc1cccc(NC(=N)c2ccccc2)c1` [Example 14, (2E)-N-[3-(iminobenzylamino)phenyl]-3-(2-methoxyphenyl)-2-propenamide], the melting point lay in the range of 219 to 221 °C.
`Cc1ccc(NC(=N)c2ccccc2)cc1NC(=O)/C=C/c1ccccc1C(F)(F)F` [Example 139, (2E)-N-[5 (iminobenzylamino)-2-methylphenyl]-3-(2-trifluoromethylphenyl)-2-propenamide] came in with a melting point of 220 to 222 °C.
In turn, `CC(=O)Nc1ccc(C(=N)Nc2cc(NC(=O)/C=C/c3ccccc3C(F)(F)F)c(F)cc2F)cc1` [Example 152, (2E)-N-[2,4-difluoro-5-[imino(4-acetylaminobenzyl)amino]phenyl]-3-(2-trifluoromethylphenyl)-2-propenamide] gave a melting point of 180 to 185 °C.
As for `CN(C)c1ccc(C(=N)Nc2cccc(NC(=O)C=Cc3ccccc3)c2)cc1` [Example 51, N-[3-[[[4-(dimethylamino)phenyl](imino)methyl]amino]phenyl]cinnamamide], the melting point was in the range of 225 to 227 °C.
The compound `N=C(Nc1cc(Cl)cc(NC(=O)/C=C/c2ccccc2C(F)(F)F)c1)c1cccs1` [Example 34, (2E)-N-[3-chloro-5-[[imino(2-thienyl)methyl]amino]phenyl]-3-[2-(trifluoromethyl)phenyl]-2-propenamide] yielded a melting point of 178 to 179 °C.
Consider `Cc1ccc(NC(=O)/C=C/c2ccccc2C(F)(F)F)cc1NC(=N)c1ccccc1` [Example 143, (2E)-N-[3-(iminobenzylamino)-4-methylphenyl]-3-(2-trifluoromethylphenyl)-2-propenamide], for which the melting point was in the range of 112 to 116 °C.
Turning to `N=C(Nc1cc(Cl)cc(NC(=O)/C=C/c2ccccc2C(F)(F)F)c1)c1ccccc1F` [Example 148, (2E)-N-[3-chloro-5-[imino(2-fluorobenzyl)amino]phenyl]-3-(2-trifluoromethylphenyl)-2-propenamide], the melting point lay in the range of 209 to 210 °C.
In the case of `COc1ccc(Cl)cc1C(=N)Nc1ccc(F)c(NC(=O)/C=C/c2ccccc2Cl)c1` [Example 18, (2E)-N-[5-[[(5-chloro-2-methoxyphenyl)(imino)methyl]amino]-2-fluorophenyl]-3-(2-chlorophenyl)-2-propenamide] it was 229 to 230 °C; in that of `Cc1ncccc1Oc1ccc(NC(=O)/C=C/c2ccccc2C(F)(F)F)cn1` [Example 9, (2E)-N-[6-(2-methyl-3-pyridyloxy)pyridin-3-yl]-3-[2-(trifluoromethyl)phenyl]-2-propenamide], 214 to 216 °C; in that of `N=C(Nc1cc(F)cc(NC(=O)/C=C/c2ccccc2C(F)(F)F)c1)c1ccccc1` [Example 137, (2E)-N-[3-fluoro-5-(iminobenzylamino)phenyl]-3-(2-trifluoromethylphenyl)-2-propenamide], 103 to 105 °C.
